Data set [1] can be described thus: Cell viability assay in MDCK cells (MTT). It counts as cell-based, canine. Particulars: dog, read-out: Cytotoxicity, CC50 ± SD, MDCK. As to the method:
(§1) The green monkey kidney (Vero) cell line originated from WHO Biologicals, Switzerland (10–87), and the Madin-Darby canine kidney (MDCK) cell line was obtained from the American Type Culture Collection (ATCC CCL-34).
Compound solutions were prepared in DMSO (20 mg/mL), and then 2-fold dilutions in cultural medium were prepared starting from 1000 μg/mL. One-day MDCK cell monolayers (over 95% confluency) in 96-well plates ([…]) were washed twice with serum-free alpha-MEM (Thermo-Fisher Scientific, USA) and treated with 100 μL of compound dilutions in 2 replicates. The plates were then incubated for 24 h at 37 °C in a CO2 incubator. Cell viability was assessed using the tetrazolium test (MTT, ApplyChem). Optical density was measured on a Wallac 1420 Victor2 microplate reader (Perkin Elmer, Ramsey, MN, USA) at 535 nm, then CC50 values were calculated.

Data set [2] in a line: Stability in stomach acid-mimicking 0.16 M aqueous HCl (TLC). It counts as physicochemical. The method, then:
Since in vivo evaluation of the leader compound in mouse model involves intragastric administration, stability in stomach acid-mimicking 0.16 M aqueous HCl was assessed. The compound was stable, with slight signs of decomposition as determined by thin-layer chromatography (TLC) for at least 4 h, which exceeds the average residence time of drugs in the stomach. Then, stability in fetal bovine serum (FBS) was evaluated.

Another data set has as its system SARS-CoV-2. The data set is described as follows: SARS-CoV-2 cytopathic effect (CPE) inhibition test. Type of data set: cell-based, strain PIK35. Particulars: Severe acute respiratory syndrome coronavirus 2, 120 h; CPE inhibition in Vero cells, 5 days, M ± SD; read-out: Antiviral Activity, EC50 ± SD, SARS-CoV-2.
Text: as §1
(§2) Viruses and strains used in the present work were severe acute respiratory syndrome-related coronavirus 2 (SARS-CoV-2, strain PIK35, GISAID EPI_ISL_428852), Chikungunya virus (CHIKV, strain Nic, GenBank IDs MN271691-2) and influenza A virus (H1N1, strain A/PR/8/34, ATCC VR-95).
The procedure was described previously. In brief, two-fold dilutions of the compounds were prepared in Dulbecco MEM (Chumakov FSC R&D IBP RAS, Russia) and mixed 1:1 with a virus suspension containing 50–200 TCID50 and incubated for 1 h at 37 °C in a CO2 incubator. The final concentration series started from 100 μM. Then, compound-virus mixtures were added to confluent Vero cell monolayers in 2 replicates. After incubation at 37 °C in a CO2-incubator for 5 days, CPE signs (cell death) were assessed via microscope, and 50% effective concentration (EC50) (compound concentration required to decrease CPE by 50%) was calculated using the Karber method.
Background: Protection from cytopathic effect is a common read-out in antiviral testing.

In the next data set the test system is CHIKV. In words: CHIKV cytopathic effect (CPE) inhibition test. Type of data set: cell-based, Chikungunya virus (CHIKV, strain Nic). Particulars: Chikungunya virus, 120 h; CPE inhibition in Vero cells, 5 days, M ± SD; read-out: Antiviral Activity, EC50 ± SD, CHIKV.
The nature of data set [3]: Solubility in water (photometry). Type of data set: physicochemical. The method, then:
The samples were dissolved in DMSO, diluted in series, and photometrically analyzed. The average molar absorption coefficient was calculated from the obtained optical densities of calibration solutions at the absorption maxima. Solubility values were determined as previously described by adding weighed amounts of compounds to distilled water followed by sonication (30 min), centrifugation (12,000 rpm, 10 min), and photometry.

Data set [4] can be described thus: Cell viability assay in Vero cells (resazurin). Type of data set: cell-based. Particulars: green monkey, 5 d, read-out: Cytotoxicity, CC50 ± SD, Vero. The method, then: as §1
Two-fold dilutions of the compounds (starting from 100 μM) were prepared in DMEM (Chumakov FSC R&D IBP RAS, Russia) and added to confluent cell monolayers. After 5 days of incubation (37 °C, 5% CO2), the cultural supernatant was substituted with a resazurin solution (25 μg/mL), followed by 4 h incubation (37 °C, 5% CO2). Then, 20 µL of 10% SDS were added to stop the reaction. Fluorescence intensity was measured with Promega GloMax-Multi Detection System (Ex525/Em580–640). Cells treated with dilutions of the compounds and DMSO, but not resazurin, were used to subtract the background fluorescence. All experimental procedures were performed in two replicates. Fluorescence curves were analyzed with Microsoft Excel 2013. 50% Cytotoxic concentrations (CC50) were calculated.
In general terms: The colour change of resazurin is a common sign of viable cells or microbes.

The test system of another data set is IAV. The data set is described as follows: IAV virus yield reduction assay. Type of data set: cell-based, influenza A virus (H1N1, strain A/PR/8/34). Particulars: Influenza A virus; virus yield reduction in MDCK cells, MOI 1, 24 h, M ± SD; read-out: Antiviral Activity, EC50 ± SD, IAV.
Text: as §1, §2
Compound solutions were prepared in DMSO (20 mg/mL). The compounds were weighed in 2 mg amounts and dissolved in 100 μL of DMSO. Then, a series of 3-fold dilutions was prepared, starting from 300 µg/mL, in a cultural medium. The MDCK cell monolayer was treated with compound dilutions and incubated for 1 h in a CO2 incubator at 37 °C. Untreated cells were used as negative control. Afterward, the virus was added (MOI 1), and cells were incubated for 24 h at 37 °C in a CO2 incubator. After incubation, the culture medium was collected, and viral yields were determined by titration. In brief, a series of 10-fold dilutions (10^−7–10^−1) of viral supernatants were prepared in a cultural medium and applied to daily MDCK cell monolayers. Infected cells were incubated for 72 h at 37 °C in a CO2 incubator. The presence of the virus in the culture supernatants was determined using the hemagglutination assay with a 1% suspension of chicken erythrocytes. Viral titer was calculated according to the Reed-and-Muench method and was expressed as 50% tissue infectious doses (TID50) per 100 μL of volume. Inhibition (%) was calculated by comparison with non-treated cells, and EC50 was calculated from inhibitory curves.

A further data set can be described thus: in vitro. The following applies: bovine, 80% FBS in 0.05 M PBS pH 7.4, 37 °C, read-out: In vitro FBS half-life (t1/2). Type of data set: in vitro ADME. The method, then:
In vitro stability of 10 was studied in Gibco FBS (Thermo-Fisher Scientific, USA) by following the reported procedure with minor modifications. A 10 mM solution of the compound in DMSO (20 μL) was added to 80% FBS in 0.05 M PBS (pH 7.4) at 37 °C to yield the final concentration of 200 μM. The assays were carried out in triplicate in a water bath at 37 °C. Samples (100 μL) were taken at 0, 15, 30, 45, 60, 90, 120, 180, 240, and 300 min and added to 400 μL acetonitrile in order to deproteinize the plasma. The samples were then shaken for 1 min and centrifuged at 37 °C at 15,000 rpm for 5 min. The supernatants were analyzed by HPLC (detection at 530 nm). AUC values were determined and averaged from three independent experiments. In vitro serum half-life (t1/2) was calculated using the equation t1/2 = 0.693/b, where b is the slope found by linear fitting of the negative natural logarithm of the fraction remaining (AUC0-300/AUC0) vs. incubation time.

The test system of data set [5] is influenza A/California/7/09/MA virus. Type of data set: in vivo, BALB/c mice. Particulars: for Average Life Expectancy (M ± SEM): BALB/c mice.

Structures are written as SMILES. Read-outs that look alike come from different tables or passages of the source.

For `C[n+]1c(C=Cc2ccc3c4cccc5cccc(c6cccc2c63)c54)sc2ccccc21.[Cl-]` [Compound 10, 3-Methyl-2-(2-(perylen-3-yl)vinyl)benzo[d]thiazol-3-ium chloride], the CC50 at 24 h in [1] was 69 ± 27 µM. In data set [2], the “Stability in 0.16 M aqueous HCl, time stable with slight signs of decomposition” value is “at least 4 h”. In addition, the EC50 amounted to 1.45 ± 0.95 µM in the data set with SARS-CoV-2, 0.99 ± 0.15 µM with CHIKV and 22.7 ± 10 µM in the data set on IAV. Also, in data set [3], the “Solubility in water (in words)” value is listed as “substantial solubility”. In [3] (thermodynamic from solid, distilled water, sonication, centrifugation, photometry), this compound registered a solubility at 30 min of 11 mM. For the same compound, the CC50 at 5 days in data set [4] was above 100 µM. Moreover, the half-life at 200 μM in the data set “in vitro” is 2.78 h. Moreover, the “Average Life Expectancy (M ± SEM)” value in [5] (0.5 mg/kg intragastric) stood at 8.6 ± 1.0 days; in data set [5] (4.5 mg/kg intragastric) it was 8.6 ± 1.2 days. Also, the results for the “Protective Index (PI)” value in [5] (0.5 mg/kg intragastric) and in data set [5] (4.5 mg/kg intragastric) were 11% and 22%, respectively. In addition, the “Weight loss (maximum)” value in data set [5] (mouse, in vivo) is given as “up to 21.3%”.

What is called CC50 is the concentration at which the toxic effect on the cells reaches its halfway point. As usually defined, the EC50 is the concentration at which the effect is half-maximal. For orientation: solubility means the concentration that dissolves in the medium under given conditions.

The values are drawn from paper PMC9610897, “Cationic Perylene Antivirals with Aqueous Solubility for Studies In Vivo” (Pharmaceuticals, 2022).
